# Data reported in paper PMC11984905, “Chiral Switch of Gadopiclenol: New Standards in MRI Probes” (Advanced Science, 2025).
# Experiment: Kinetic inertness: dissociation of Gd(III)-complexes in 0.01–1.0 M HCl followed by HPLC
# Format: physicochemical
# Conditions: for acid-catalyzed dissociation, times slower than Gd(III)-complex with BT-DO3A / acid-catalyzed dissociation, times slower than Gd(III)-complex with HP-DO3A: ratio of k1; for k d at pH = 7.4: dissociation rate calculated at pH 7.4, 25 °C; for k1: proton-assisted dissociation, 25 °C, [H+]≤0.15 M: [Na+]+[H+]=0.15 M
# Text: The kinetic inertness of the Gd(III)‐complexes with the different isomers formed by rac‐L1 and rac‐L2 was characterized by the rates of the dissociation reactions taking place in 0.01–1.0 M HCl solution. The dissociation reactions were followed by measuring the integral values of the Gd(III)‐complexes with the different isomers of rac‐L1 and rac‐L2 ligands with HPLC. The conditions of the HPLC experiments for the kinetic studies of the Gd(III)‐complexes with rac‐L1 and rac‐L2 ligands are summarized in Tables S1 and S2 (Supporting Information), respectively. The samples were kept at 25 °C in a well‐closed vessel. For the HPLC analysis, 100 µL samples were withdrawn from the solutions. The measurements were performed with 0.2 mM solution of Gd(III)‐complexes. The pseudo‐first‐order rate constants (k d) were calculated by fitting the HPLC integral – t data pairs to Equation (1). (1) At=Ar−Ave^−kdt+Av where A r, A v, and A t are the integral values of the reactants, the product, and reaction time t. The temperature was maintained at 25 °C and the ionic strength of the solutions was kept constant at [H^+]≤0.15 M, [HCl]+[NaCl] = 0.15 M. The calculation of the kinetic parameters was performed by the fitting of the absorbance – time and relaxation rate – time data pairs with the Micromath Scientist computer program (version 2.0, Salt Lake City, UT, USA).
# The dissociation reactions of Gd(III)-complexes with the different isomers formed by rac-L1 and rac-L2 have been studied by HPLC method (Tables S1 and S2) at 25 °C in 0.01 – 1.0 M HCl solution to guarantee the pseudo-first-order kinetic condition. Area values as a function of time for the dissociation reactions of Gd(III)-complexes formed with the different stereoisomers of rac-L1 obtained at 25 °C in 1.0 M HCl solution are shown in Figure S48.
# In the presence of HCl excess, the decomplexation of Gd(III)-complexes can be treated as a pseudo-first-order process and the reaction rate can be expressed by Equation (S9), where kd is a pseudo-first-order rate constant, [GdL]t and [GdL]tot are the concentrations of the GdL species at time t and the total concentration of the complex, respectively.
# The rates of the dissociation reactions have been studied at different concentrations of HCl ([HCl]=0.01 – 1.0 M, 25 °C). The kd values obtained for the Gd(III)-complexes with the different isomers of rac-L1 and rac-L2 ligands as a function of [H^+] are shown in Figures S49 and S50.
# The obtained kd pseudo-first order rate constants are directly proportional to the concentration of H^+. The increase in the kd values with increasing concentration of H^+ can be interpreted in terms of the proton assisted dissociation of Gd(III)-complexes. […] The proton assisted dissociation of Gd(III)-complexes might be explained by the equilibrium formation of a protonated *Gd(HL) intermediate (Equation (S11)), which dissociates spontaneously (Equation (12)).
# where k0, and k1 = kGdHL×K^HGdHL are the rate constants characterizing the spontaneous and proton-assisted dissociation of Gd(III)-complexes. The protonation constant (K^HGdHL) of Gd(DOTA)-like complexes are very small (Gd(DOTA): K^HGdHL =14).^[22] By considering very low protonation constant of Gd(III)-complexes with A, C and D isomers of rac-L1 and A’, C’ and D’ isomers of rac-L2 ligands (K^HGdHL<<10), the denominator of Equation (S14) (1>> K^HGdHL [H^+]) can be neglected, so Equation (S14) can be simplified in the form of Equation (S15). The k0 and k1 values of the Gd(III) complexes with A, C and D isomers of rac-L1, and A’, C’ and D’ isomers of rac-L2 ligands have been calculated by fitting of the kinetic data (Figures S49 and S50) to Equation (S15).
# The k1 rate and logK^HGdHL protonation constants characterizing the acid-catalyzed decomplexation of Gd(III)-complexes formed with the different stereoisomers of rac-L1 and rac-L2 are presented and compared with those of [Gd(PCTA)], [Gd(DOTA)]^-, [Gd(HP-DO3A)] and [Gd(BT-DO3A)] in Table S19.
smiles,measurement,setting,value
O=C(O)CCC(C(=O)O)N1CCN(C(CCC(=O)O)C(=O)O)Cc2cccc(n2)CN(C(CCC(=O)O)C(=O)O)CC1 (stereo not drawn) [ent‐L1],"acid-catalyzed dissociation, times slower than Gd(III)-complex with BT-DO3A",,24 times
same,"acid-catalyzed dissociation, times slower than Gd(III)-complex with HP-DO3A",,207 times
O=C([O-])CCC(C(=O)[O-])N1CCN(C(CCC(=O)[O-])C(=O)[O-])Cc2cccc(n2)CN(C(CCC(=O)[O-])C(=O)[O-])CC1.[Gd+3] (racemic) [[Gd(ent‐L1)]^3−],k d at pH = 7.4,listed as RRR/SSS (C),RRR/SSS (C): 5.61 × 10^−14 s^−1
same,k d at pH = 7.4,listed as [Gd(rac-L1)] C (RRR/SSS),5.61×10^-14 s^−1
same,k1,,(1.4±0.1) ×10^-6 M^-1s^-1
O=C(CCC(C(=O)O)N1CCN(C(CCC(=O)NCC(O)CO)C(=O)O)Cc2cccc(n2)CN(C(CCC(=O)NCC(O)CO)C(=O)O)CC1)NCC(O)CO (stereo not drawn) [ent‐L2],"acid-catalyzed dissociation, times slower than Gd(III)-complex with BT-DO3A",,7 times
same,"acid-catalyzed dissociation, times slower than Gd(III)-complex with HP-DO3A",,66 times
O=C(CCC(C(=O)[O-])N1CCN(C(CCC(=O)NCC(O)CO)C(=O)[O-])Cc2cccc(n2)CN(C(CCC(=O)NCC(O)CO)C(=O)[O-])CC1)NCC(O)CO.[Gd+3] (stereo not drawn) [[Gd(ent‐L2)]],k d at pH = 7.4,listed as RRR/SSS (D′),RRR/SSS (D′): 1.74 × 10^−13 s^−1
same,k d at pH = 7.4,listed as [Gd(rac-L2)] D’ (RRR/SSS),1.74×10^-13 s^−1
same,k1,,(4.4±0.2) ×10^-6 M^-1s^-1
